Measured values: article PMC8793051 (ACS Omega, 2022)

Key:
K-562 = assay: NCI-60 SRB growth assay; format: cell-based, human; settings: for GI50 / CC50: Homo sapiens; for GI50: K562; for CC50: K562, read-out: LC50; for TGI: K-562
SF-295 = assay: NCI-60 SRB growth assay; format: cell-based, human; settings: for GI50 / CC50: Homo sapiens; for GI50: SF-295; for TGI: SF-265; for CC50: SF-295, read-out: LC50
SNB-19 = assay: NCI-60 SRB growth assay; format: cell-based, human; settings: for CC50: SNB-19, read-out: LC50
IGROV1 = assay: NCI-60 SRB growth assay; format: cell-based, human; settings: for GI50: IGROV-1; for TGI: IGROV1
SK-OV-3 = assay: NCI-60 SRB growth assay; format: cell-based, human; settings: for GI50 / CC50: Homo sapiens; for GI50 / TGI: SK-OV-3; for CC50: SK-OV-3, read-out: LC50
ACHN = assay: NCI-60 SRB growth assay; format: cell-based, human; settings: for GI50 / CC50: Homo sapiens; for CC50: read-out: LC50
SN12C = assay: NCI-60 SRB growth assay; format: cell-based, human; settings: for TGI: SN12c
TK-10 = assay: NCI-60 SRB growth assay; format: cell-based, human; settings: for GI50 / CC50: Homo sapiens; for GI50 / TGI: TK-10; for CC50: TK-10, read-out: LC50
HL-60(TB) [1] = assay: cells; settings: Homo sapiens; for GI50: HL-60; for CC50: HL-60, read-out: LC50
HL-60(TB) [2] = tested on: HL-60(TB)
MDA-MB-231 cells = assay: Cell cycle analysis by flow cytometry; format: cell-based, human; settings: at 6 and 12 h; control 1–2%

Structure (SMILES)	GI50 (K-562) [nM]	CC50 (K-562) [nM]	TGI (K-562) [nM]	GI50 (SF-295) [nM]	TGI (SF-295) [nM]	CC50 (SNB-19; Homo sapiens) [nM]	TGI (SNB-19; SNB-19) [nM]	GI50 (IGROV1; Homo sapiens) [nM]	TGI (IGROV1) [nM]	GI50 (SK-OV-3) [nM]	CC50 (SK-OV-3) [nM]	TGI (SK-OV-3) [nM]	TGI (ACHN) [nM]	GI50 (ACHN) [nM]	CC50 (ACHN) [nM]	GI50 (SN12C; Homo sapiens, SN12C) [nM]	TGI (SN12C) [nM]	GI50 (TK-10) [nM]	GI50 (HL-60(TB) [1]) [nM]	CC50 (HL-60(TB) [1]) [nM]	also measured
CCCCN1CCN(c2ccc3[nH]c(-c4ccc5[nH]c(-c6ccc(OCC)c(OCC)c6)nc5c4)nc3c2)CC1 [12a, 5-(4-Butylpiperazin-1-yl)-2-(2-(3,4-diethoxyphenyl)-1H-benzo[d]imidazol-5-yl)-1H-benzo[d]imidazole]	520	7530	2270	700	2260	5580	2610	1150	2600	1330	8010	3270	2120	920	4650	1030	2610	1660	700	67900	GI50 (SNB-19; Homo sapiens, SNB-19): 1220 nM; CC50 (TK-10): > 100000 nM; TGI (TK-10): 5170 nM
CCCN1CCN(c2ccc3[nH]c(-c4ccc5[nH]c(-c6ccc(OCC)c(OCC)c6)nc5c4)nc3c2)CC1 [11a, 2-(2-(3,4-Diethoxyphenyl)-1H-benzo[d]imidazol-5-yl)-5-(4-propylpiperazin-1-yl)-1H-benzo[d]imidazole]	310	–	1500	500	2300	5600	2180	760	4100	2100	9900	10200	2100	820	4770	450	2060	1220	370	> 100000	CC50 (SF-295): 7800 nM; CC50 (IGROV1; Homo sapiens, IGROV-1, read-out: LC50): 37800 nM; CC50 (SN12C; Homo sapiens, SN12C, read-out: LC50): 6750 nM; CC50 (TK-10): 2470 nM; TGI (TK-10): 4900 nM; TGI (HL-60(TB) [2]): 2700 nM
CCCCN1CCN(c2ccc3[nH]c(-c4ccc5[nH]c(-c6ccc(C(F)(F)F)cc6)nc5c4)nc3c2)CC1 [12b, 5-(5-(4-Butylpiperazin-1-yl)-1H-benzo[d]imidazol-2-yl)2(4(trifluoromethyl)phenyl)-1H-benzo[d]imidazole]	220	> 100000	–	1340	2700	–	–	1700	3400	–	–	–	2600	1320	5140	1540	3020	–	1200	6600	CC50 (SF-295): 5400 nM; cells in the sub-G1 phase (MDA-MB-231 cells): 7.4%; TGI (HL-60(TB) [2]): 2800 nM
